Where two headings read alike, the source gives them in different places.
Columns and labels:
[1] = target: T1, Alpha1A adrenergic receptor (Homo sapiens, UniProt P35348); assay: Ca2+ flux functional assay at Alpha1A; type: cell-based; conditions: agonist, Ca2+ flux, max dose; read-out: Alpha 1A % Act @ Max Dose
T1 construct: expressed in transfected cells
T1 sequence (P35348 1-466): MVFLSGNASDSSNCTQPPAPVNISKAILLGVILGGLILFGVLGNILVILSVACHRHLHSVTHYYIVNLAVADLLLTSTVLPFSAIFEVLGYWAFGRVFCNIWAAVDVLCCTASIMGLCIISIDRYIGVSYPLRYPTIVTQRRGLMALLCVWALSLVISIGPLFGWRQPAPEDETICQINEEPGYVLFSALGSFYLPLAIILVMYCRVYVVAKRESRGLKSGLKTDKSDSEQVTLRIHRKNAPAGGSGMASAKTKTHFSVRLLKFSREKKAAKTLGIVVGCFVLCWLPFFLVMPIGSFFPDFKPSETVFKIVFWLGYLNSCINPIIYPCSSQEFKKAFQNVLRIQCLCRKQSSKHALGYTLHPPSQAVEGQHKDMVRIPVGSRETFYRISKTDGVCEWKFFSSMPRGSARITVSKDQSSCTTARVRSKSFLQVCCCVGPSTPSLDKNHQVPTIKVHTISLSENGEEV
Description: Disclosed compounds were tested for agonist activity at several adrenergic (Alpha1A and Alpha2A) and dopamine (D1 and D2) receptor subtypes using Ca^2+ flux functional assays, with the results summarized in Table 6. Selectivity for the 5-HT2A receptor over these other targets varied depending on the specific target and compound.
(§1) Functional Assays at Adrenergic and Dopamine Receptors. Agonist activity at Alpha1A, Alpha2A, D1, and D2 receptors was determined using a FLIPR Ca^2+ flux assay at WuXi AppTec (Hong Kong) Limited according to their standard protocols. Briefly, stably transfected cells expressing the receptor of interest were grown and plated in a 384 well plate and incubated at 37° C. and 5% CO2 overnight. A solution of 250 mM probenecid in 1 mL FLIPR assay buffer was prepared fresh. This was combined with a fluorescent dye (Fluo-4 Direct™) to make a final assay concentration of 2.5 mM. Compounds were diluted 1:3.16 for 10 points and 750 nL was added to a 384 well compound plate using ECHO along with 30 μL assay buffer. The fluorescent dye was then added to the assay plate along with assay buffer to a final volume of 40 μL. The cell plate was incubated for 50 min at 37° C. and 5% CO2 and placed into the FLIPR Tetra along with the compound plate. 10 μL of references and compounds were then transferred from the compound plate into the cell plate and the fluorescent signal was read.

5-HT1B receptor = target: T2, 5-HT1B receptor (Homo sapiens, UniProt P28222); assay: cAMP accumulation functional assay at 5-HT1B; type: cell-based; conditions: agonist, cAMP accumulation, max dose; read-out: 5-HT1B % Act @ Max Dose
T2 construct: expressed in transfected cells
T2 sequence (P28222 whole entry): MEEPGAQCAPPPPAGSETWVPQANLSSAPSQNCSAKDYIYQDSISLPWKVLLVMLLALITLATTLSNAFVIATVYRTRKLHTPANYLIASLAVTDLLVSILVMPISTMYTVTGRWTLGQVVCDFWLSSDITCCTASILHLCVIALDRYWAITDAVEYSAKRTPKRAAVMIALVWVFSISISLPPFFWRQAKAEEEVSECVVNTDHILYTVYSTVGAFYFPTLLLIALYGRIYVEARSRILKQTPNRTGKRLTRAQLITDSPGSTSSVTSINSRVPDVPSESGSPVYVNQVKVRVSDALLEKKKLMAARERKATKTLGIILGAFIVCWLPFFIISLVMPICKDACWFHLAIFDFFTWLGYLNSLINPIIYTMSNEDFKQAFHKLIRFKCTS
Outline: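 Stably transfected human 5-HT1B cells were incubated 60 min at room temperature, after which detection reagent was applied for another 60 min at RT. The read-out was cAMP accumulation, used as a measure of agonist activity.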

in vitro [2] = type: in vitro ADME, human; conditions: HLM 0.50 mg/mL, NADPH 1 mM, 1 μM compound, pH 7.4, 37° C., 60 min; for microsomal CLint / half-life: human, microsomes; for microsomal CLint: read-out: Intrinsic clearance (Clint); for half-life: read-out: half-life (t1/2)
in vitro [3] = type: in vitro ADME, rat; conditions: RLM (male Sprague-Dawley) 0.50 mg/mL, NADPH 1 mM, 1 μM compound, pH 7.4, 37° C., 60 min; for microsomal CLint / half-life: rat, microsomes; for microsomal CLint: read-out: Intrinsic clearance (Clint); for half-life: read-out: half-life (t1/2)
Excerpt: RLM Stability Pooled RLM from male Sprague-Dawley rats (Xenotech R1000) were used.

in vitro [4] = type: in vitro ADME, mouse; conditions: MLM (male CD-1) 0.50 mg/mL, NADPH 1 mM, 1 μM compound, pH 7.4, 37° C., 60 min; for microsomal CLint / half-life: mouse, microsomes; for microsomal CLint: read-out: Intrinsic clearance (Clint); for half-life: read-out: half-life (t1/2)
Excerpt: MLM Stability Pooled MLM from male CD-1 mice (BIOIVT M00501) were used.

5-HT2B receptor [5] = target: T3, 5-HT2B receptor (Homo sapiens, UniProt P41595); assay: cell-based; type: cell-based; conditions: Ca2+ flux; for Emax: HEK293, agonist, HEK293, max dose, read-out: 5-HT2B % Act @ Max Dose; for EC50: agonist, HEK293
T3 construct: expressed in transfected cells; host or cells: HEK293, stably transfected
T3 sequence (P41595 whole entry): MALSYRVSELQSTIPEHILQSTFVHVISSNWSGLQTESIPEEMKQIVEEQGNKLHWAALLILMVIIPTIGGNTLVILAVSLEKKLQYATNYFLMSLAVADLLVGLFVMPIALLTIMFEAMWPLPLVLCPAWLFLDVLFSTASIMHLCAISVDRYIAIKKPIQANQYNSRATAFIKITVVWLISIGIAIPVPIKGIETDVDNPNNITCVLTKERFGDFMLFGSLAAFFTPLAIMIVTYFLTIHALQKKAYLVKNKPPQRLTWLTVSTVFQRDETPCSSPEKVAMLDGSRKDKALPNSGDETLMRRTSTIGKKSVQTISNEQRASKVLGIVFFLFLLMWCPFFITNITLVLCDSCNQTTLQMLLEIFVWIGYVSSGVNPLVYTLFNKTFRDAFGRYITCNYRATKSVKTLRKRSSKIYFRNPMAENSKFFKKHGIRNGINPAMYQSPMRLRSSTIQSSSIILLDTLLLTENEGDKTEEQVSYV
Outline: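 FLIPR Tetra fluorescence read-out of calcium flux after compound addition. Receptor-expressing stable lines were used (HEK293 for 2A/2B; CHO with Gα15 for 1A), dye-loaded with Fluo-4 Direct and 2.5 mM final probenecid, 50 min at 37 °C.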

5-HT2A receptor [6] = target: T4, 5-HT2A receptor (Homo sapiens, UniProt P28223); assay: cell-based; type: cell-based; parameters: expressed in transfected cells; host or cells: HEK293, stably transfected; conditions: Ca2+ flux; for Emax: HEK293, agonist, HEK293, max dose, read-out: 5-HT2A % Act @ Max Dose; for EC50: agonist, HEK293
T4 sequence (P28223 whole entry): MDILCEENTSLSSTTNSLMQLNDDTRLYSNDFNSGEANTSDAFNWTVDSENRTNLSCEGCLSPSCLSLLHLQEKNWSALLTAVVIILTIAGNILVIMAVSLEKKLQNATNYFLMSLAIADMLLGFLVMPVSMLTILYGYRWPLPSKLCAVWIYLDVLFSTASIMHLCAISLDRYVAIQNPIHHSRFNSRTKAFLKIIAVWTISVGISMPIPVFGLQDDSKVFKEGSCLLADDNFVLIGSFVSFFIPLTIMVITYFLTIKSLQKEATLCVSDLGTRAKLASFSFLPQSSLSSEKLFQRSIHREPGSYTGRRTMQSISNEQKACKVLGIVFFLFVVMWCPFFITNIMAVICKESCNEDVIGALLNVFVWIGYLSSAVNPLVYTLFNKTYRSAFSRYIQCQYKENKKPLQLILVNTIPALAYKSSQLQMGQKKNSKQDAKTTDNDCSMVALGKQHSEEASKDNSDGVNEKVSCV
Outline: (§2)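 Using HEK293 lines for the 5-HT2 subtypes and Gα15-coupled CHO cells for 5-HT1A, compounds were tested as agonists. Fluorescent Ca2+ signal followed dye loading (Fluo-4 Direct, 2.5 mM final probenecid, 50 min, 37 °C).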

5-HT1A receptor = target: T5, 5-HT1A receptor (Homo sapiens, UniProt P08908); assay: cell-based; conditions: agonist, Ca2+ flux; for Emax: CHO, CHO cells with Gα15, max dose, read-out: 5-HT1A % Act @ Max Dose; for EC50: CHO cells with Gα15
T5 construct: expressed in transfected cells; host or cells: CHO cells, stably transfected
T5 sequence (P08908 1-422): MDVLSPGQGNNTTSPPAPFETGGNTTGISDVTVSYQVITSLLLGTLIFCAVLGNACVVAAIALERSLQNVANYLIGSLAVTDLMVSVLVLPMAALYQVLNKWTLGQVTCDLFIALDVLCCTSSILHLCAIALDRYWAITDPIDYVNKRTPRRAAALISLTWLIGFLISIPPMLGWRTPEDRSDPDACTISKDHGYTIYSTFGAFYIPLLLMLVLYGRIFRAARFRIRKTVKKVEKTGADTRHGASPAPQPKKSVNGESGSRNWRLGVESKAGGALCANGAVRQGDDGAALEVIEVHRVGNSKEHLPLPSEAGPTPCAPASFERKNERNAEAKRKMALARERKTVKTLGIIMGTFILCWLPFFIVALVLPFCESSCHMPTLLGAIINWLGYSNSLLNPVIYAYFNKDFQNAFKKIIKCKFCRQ
Outline: as §2

5-HT2C receptor = target: T6, 5-HT2C receptor (Homo sapiens, UniProt P28335); assay: Ca2+ flux functional assay at 5-HT2C (WuXi 5-HT2C protocol); type: cell-based; parameters: expressed in transfected cells; conditions: for Emax: agonist, tested using WuXi 5-HT2C protocol, max dose, read-out: 5-HT2C % Act @ Max Dose (* WuXi protocol)
T6 sequence (P28335 33-458): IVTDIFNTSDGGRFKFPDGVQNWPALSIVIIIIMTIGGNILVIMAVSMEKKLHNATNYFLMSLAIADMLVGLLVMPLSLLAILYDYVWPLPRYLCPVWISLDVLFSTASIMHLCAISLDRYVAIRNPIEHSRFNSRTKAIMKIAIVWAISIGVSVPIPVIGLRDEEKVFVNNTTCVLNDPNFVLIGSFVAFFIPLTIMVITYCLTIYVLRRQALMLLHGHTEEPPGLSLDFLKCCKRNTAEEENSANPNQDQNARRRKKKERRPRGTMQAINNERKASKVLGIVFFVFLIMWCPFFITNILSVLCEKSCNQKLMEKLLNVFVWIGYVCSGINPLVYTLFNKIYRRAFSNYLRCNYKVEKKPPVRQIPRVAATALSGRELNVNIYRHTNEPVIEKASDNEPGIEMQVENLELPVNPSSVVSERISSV
Description: Disclosed compounds were tested for agonist activity at several serotonin receptor subtypes (5-HT2A, […], 5-HT2C, and 5-HT1A) using Ca^2+ flux functional assays and the 5-HT1B receptor using a cAMP accumulation assay, with the results summarized in Table 4. […] Potent agonist activity was also observed at the other serotonin receptors tested, although the selectivity profile among the receptors varied across compounds. […] However, at the same time, the N-propyl compounds were more efficacious agonists at 5-HT2B than the corresponding N-methyl compounds. The selectivity of disclosed compounds for 5-HT2A over 5-HT2C and 5-HT1A was less predictable and varied widely across compounds. […] An azetidinyl amide substituent tended to increase potency at 5-HT1A relative to 5-HT2A.
as §1, with “5-HT2A, 5-HT2B,” for “Adrenergic”, “5-HT1A.” for “Dopamine Receptors.”, “5-HT2A, 5-HT2B, 5HT2C” for “Alpha1A, Alpha2A, D1,”, “5-HT1A” for “D2”, “interest and Gα15 in the case of 5-HT1A (HEK293 for 5-HT2A and 5-HT2B; CHO cells for 5-HT1A)” for “interest”

5-HT2A receptor [7] = target: T4, 5-HT2A receptor; assay: biochemical; type: binding; parameters: expressed in transfected cells; host or cells: HEK293, stably transfected; conditions: [3H]ketanserin 1 nM; HEK293 stable cell line; 1 h, 25 °C
Outline: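 Values reflect [^3H]ketanserin binding competition. Assay conditions were adapted from the literature.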

5-HT2B receptor [8] = target: T3, 5-HT2B receptor; assay: 5-HT2B receptor radioligand binding ([3H]LSD); conditions: read-out: 5-HT2B Receptor Ki

## CCN(CC)C(=O)[C@@H]1C=C2c3cccc4[nH]cc(c34)C[C@H]2N(CCC(F)(F)F)C1 [Compound 12, (6aR,9R)—N,N-diethyl-7-(3,3,3-trifluoropropyl)-4,6,6a,7,8,9-hexahydroindolo[4,3-fg]quinoline-9-carboxamide]
[1]
  Emax: 2.08%
5-HT1B receptor
  Emax: 95.5%
In vitro [2]
  half-life (t1/2): 13.5 min
In vitro [3]
  half-life (t1/2): 5.9 min
In vitro [4]
  half-life (t1/2): 2.1 min
5-HT2B receptor [5]
  Emax: 29.6%
5-HT2A receptor [6]
  Emax: 78.7%
5-HT1A receptor
  Emax: 71.4%

## CCN(C)C(=O)[C@@H]1C=C2c3cccc4[nH]cc(c34)C[C@H]2N(Cc2cccc(OC)c2)C1 [Compound 92, (6aR,9R)—N-ethyl-7-(3-methoxybenzyl)-N-methyl-4,6,6a,7,8,9-hexahydroindolo[4,3-fg]quinoline-9-carboxamide]
5-HT2C receptor
  EC50: > 10000 nM
  Emax: 12.5%
In vitro [2]
  microsomal CLint: 140 µL/min/mg
  half-life: 9.9 min
In vitro [3]
  microsomal CLint: 278 µL/min/mg
  half-life: 5 min
5-HT2A receptor [7]
  Ki: 11.1 nM
In vitro [4]
  microsomal CLint: 321 µL/min/mg
  half-life: 4.3 min
5-HT2B receptor [8]
  Ki: 1950 nM
5-HT2B receptor [5]
  Emax: 0.48%
  EC50: > 10000 nM
5-HT2A receptor [6]
  Emax: 53.8%
  EC50: 793 nM
5-HT1A receptor
  Emax: 21.6%
  EC50: > 100000 nM

## CN(C)C(=O)[C@@H]1C=C2c3cccc4[nH]cc(c34)C[C@H]2N(Cc2ccccc2)C1 [Compound 102, (6aR,9R)-7-benzyl-N,N-dimethyl-4,6,6a,7,8,9-hexahydroindolo[4,3-fg]quinoline-9-carboxamide]
5-HT2C receptor
  EC50: 685 nM
  Emax: 76.6%
In vitro [2]
  microsomal CLint: 16.9 µL/min/mg
  half-life: 82 min
In vitro [3]
  microsomal CLint: 134 µL/min/mg
  half-life: 10.3 min
5-HT2A receptor [7]
  Ki: 10.8 nM
In vitro [4]
  microsomal CLint: 111 µL/min/mg
  half-life: 12.5 min
5-HT2B receptor [8]
  Ki: 170 nM
5-HT2B receptor [5]
  Emax: 5.86%
  EC50: > 10000 nM
5-HT2A receptor [6]
  Emax: 65.2%
  EC50: 155 nM
5-HT1A receptor
  Emax: 90.1%
  EC50: 26200 nM

## CCN(C)C(=O)[C@@H]1C=C2c3cccc4[nH]cc(c34)C[C@H]2N(CC2CCCC2)C1 [Compound 103, (6aR,9R)-7-(cyclopentylmethyl)-N-ethyl-N-methyl-4,6,6a,7,8,9-hexahydroindolo[4,3-fg]quinoline-9-carboxamide]
5-HT2C receptor
  EC50: > 10000 nM
  Emax: 21.7%
In vitro [2]
  microsomal CLint: 121 µL/min/mg
  half-life: 11.4 min
In vitro [3]
  microsomal CLint: 185 µL/min/mg
  half-life: 7.5 min
5-HT2A receptor [7]
  Ki: 1.6 nM
In vitro [4]
  microsomal CLint: 277 µL/min/mg
  half-life: 5 min
5-HT2B receptor [8]
  Ki: 11.7 nM
5-HT2B receptor [5]
  Emax: 5.54%
  EC50: > 10000 nM
5-HT2A receptor [6]
  Emax: 80.1%
  EC50: 422 nM
5-HT1A receptor
  Emax: 122%
  EC50: 84400 nM
